Tests used:
[1] = test system: MOOVA (Monochoria vaginalis); assay: Flooded paddy, preemergence weed control; assay type: in vivo, Presl.; conditions: rated 3-4 weeks after treatment, 0-9 rating scale
How it was run: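 Preemergence, flooded: propagules planted at 0.5 cm depth in silt loam, water level maintained at 1.5 to 3 cm over soil, containers kept on greenhouse benches. Activity scored 0-9 by eye relative to a control plant.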

ORYSAT (Rice, Tebonnet) [2] = assay: Flooded paddy, post-transplant rice tolerance; assay type: in vivo, Oryza sativa, (L.) Tebonnet; conditions: flooded paddy, post-transplant rice, rated 3-4 weeks after treatment, 0-9 rating scale
How it was run: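 Visual 0–9 injury rating against a control, covering stand, vigor, malformation, size, chlorosis and overall appearance. Treatment was post-transplant onto flooded containers (water 1.5–3 cm deep, silt loam) holding two ten-day-old cv. Tebonnet seedlings, maintained on greenhouse benches.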

ORYSAT (Rice, Tebonnet) [3] = assay: Postemergence herbicidal evaluation; assay type: in vivo, Oryza sativa, (L.) Tebonnet; conditions: postemergence, rate 0.0320 kg/ha
How it was run: (§1)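 Visual 0–9 injury scores versus control plants, covering stand, vigour, malformation, size, chlorosis and general appearance, taken four to five weeks post-spray and averaged over replicate tests. Plants were sprayed at roughly two weeks old and held on greenhouse benches.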

CYPIR (Cyperus iria) = assay: Flooded paddy, postemergence weed control; assay type: in vivo; conditions: postemergence weeds, rated 3-4 weeks after treatment
Excerpt: Results of herbicide evaluation are expressed on a rating scale (0-9). The scale is based upon a visual observation of plant stand, vigor, malformation, size, chlorosis and overall plant appearance as compared with a control.
Plastic containers containing weeds which are 3 to 5 cm tall and rice seedlings at the 1.5 to 2.5 leaf stage are flooded with water. The water is maintained at 1.5 to 3 cm above the soil surface for the duration of the experiment. Test compounds are applied as aqueous/acetone mixtures 50/50 v/v directly into the flood water to provide the equivalent of about 0.0320 to 0.2500 kg/ha of active ingredient. The treated containers are placed on greenhouse benches and cared for in accordance with conventional greenhouse procedures. Three to four weeks after treatment, the test is terminated and each container is examined and herbicidal effect rated according to the rating system provided in Example 87. The compounds evaluated are identified in Example 87 and plant species used are identified in Example 89.

[4] = test system: SAGPY (Sagittaria pygmaea); assay: Flooded paddy, postemergence weed control; assay type: in vivo, L.; conditions: postemergence weeds, rated 3-4 weeks after treatment
How it was run: (§2)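 Weeds 3 to 5 cm tall plus rice seedlings at the 1.5 to 2.5 leaf stage were flooded, water held 1.5 to 3 cm above soil. Compounds in 50/50 v/v aqueous/acetone went directly into flood water at about 0.0320 to 0.2500 kg/ha. Greenhouse, 3 to 4 weeks; visual 0-9 rating versus control.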

[5] = test system: TRZAWR (Wheat, Winter, cv Riband); assay: Postemergence herbicidal evaluation; assay type: in vivo, Triticum aestivum; conditions: postemergence, rate 0.0320 kg/ha
How it was run: as §1

SETVI (Setaria viridis) [6] = assay: Postemergence herbicidal evaluation; assay type: in vivo, (L.) Beau; conditions: postemergence
How it was run: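 Visual injury score (0-9: stand, vigor, malformation, size, chlorosis, overall appearance vs untreated control) taken four to five weeks post-spray. Two-week-old seedlings received about 0.0040 to 1.000 kg/ha active compound in acetone/water with 0.5% TWEEN 20.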

ORYSAT (Rice, Tebonnet) [7] = assay: Flooded paddy, post-transplant and postemergence rice tolerance; assay type: in vivo, Oryza sativa, (L.) Tebonnet; conditions: post-transplant rice, rated 3-4 weeks after treatment
How it was run: as §2

[8] = test system: CYPSE (Cyperus serotinus); assay: Flooded paddy, postemergence weed control; assay type: in vivo, Rottb.; conditions: postemergence weeds, rated 3-4 weeks after treatment
How it was run: as §2

[9] = test system: MOOVA (Monochoria vaginalis); assay: Flooded paddy, postemergence weed control; assay type: in vivo, Presl.; conditions: postemergence weeds, rated 3-4 weeks after treatment
How it was run: as §2

SETVI (Setaria viridis) [10] = assay: Preemergence herbicidal evaluation; assay type: in vivo, (L.) Beau; conditions: rated 4-5 weeks after treatment
How it was run: (§3)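 Visual 0-9 rating versus untreated control, taken four to five weeks post-treatment, scoring stand, vigor, malformation, size, chlorosis and overall appearance. Compound applied as aqueous acetone spray to freshly seeded soil cups, then kept under standard greenhouse care.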

[11] = test system: ECHCG (Echinochloa crus-galli); assay: Preemergence herbicidal evaluation; assay type: in vivo, (L.) Beau; conditions: rated 4-5 weeks after treatment
How it was run: as §3

[12] = test system: ABUTH (Abutilon theophrasti); assay: Preemergence herbicidal evaluation; assay type: in vivo, Medic.; conditions: rated 4-5 weeks after treatment
[13] = test system: ECHORC (Echinochloa oryzoides); assay: Flooded paddy, postemergence weed control; assay type: in vivo, Echinochloa oryzoides (Ard.) Fritsch.; conditions: postemergence weeds, rated 3-4 weeks after treatment
How it was run: as §2

For `Cn1c(C(F)(F)F)cc(=O)n(-c2cc3c(C4OCCO4)nsc3cc2F)c1=O` [Compound 61, 3-[3-(1,3-dioxolan-2-yl)-6-fluoro-1,2-benzisothiazol-5-yl]-1-methyl-6-(trifluoromethyl)uracil], the “herbicidal rating, MOOVA” value ([1]; rate 0.0080 kg/ha) was 8.5, the “herbicidal rating, MOOVA” value ([1]; rate 0.0320 kg/ha) was 9.0 and the “herbicidal rating, MOOVA” value ([1]; rate 0.1250 kg/ha) was 9.0. For the same molecule, the “herbicidal rating, ORYSAT (rice tolerance)” value (from here on “herbicidal rating, ORYSAT”) (ORYSAT (Rice, Tebonnet) [2]; rate 0.0080 kg/ha) was 8.0, the “herbicidal rating, ORYSAT” value (ORYSAT (Rice, Tebonnet) [2]; rate 0.0320 kg/ha) was 9.0 and the “herbicidal rating, ORYSAT” value (ORYSAT (Rice, Tebonnet) [2]; rate 0.1250 kg/ha) was 9.0. The ORYSAT herbicidal rating (ORYSAT (Rice, Tebonnet) [3]) was 5.5, the “herbicide rating (0-9) CYPIR” value (CYPIR (Cyperus iria); 0.0320 kg/ha into flood water) was 9.0 and the “herbicide rating (0-9) CYPIR” value (CYPIR (Cyperus iria); 0.0620 kg/ha into flood water) was 9.0. For the same molecule, the “herbicide rating (0-9) CYPIR” value (CYPIR (Cyperus iria); 0.1250 kg/ha into flood water) was 9.0, the “herbicide rating (0-9) SAGPY” value ([4]; 0.0320 kg/ha into flood water) was 6.0 and the “herbicide rating (0-9) SAGPY” value ([4]; 0.0620 kg/ha into flood water) was 8.0. For the same molecule, the “herbicide rating (0-9) SAGPY” value ([4]; 0.1250 kg/ha into flood water) was 9.0, the TRZAWR herbicidal rating [5] was 5.5 and the SETVI herbicidal rating (SETVI (Setaria viridis) [6]; rate 0.0320 kg/ha) was 7.5. The SETVI herbicidal rating (SETVI (Setaria viridis) [6]; rate 0.0620 kg/ha) was 8.0, the “herbicide rating (0-9) ORYSAT (rice tolerance)” value (“herbicide rating (0-9) ORYSAT” below) (ORYSAT (Rice, Tebonnet) [7]; 0.0320 kg/ha into flood water) was 9.0 and the “herbicide rating (0-9) ORYSAT” value (ORYSAT (Rice, Tebonnet) [7]; 0.0620 kg/ha into flood water) was 9.0. For the same molecule, the “herbicide rating (0-9) ORYSAT” value (ORYSAT (Rice, Tebonnet) [7]; 0.1250 kg/ha into flood water) was 9.0, the “herbicide rating (0-9) CYPSE” value ([8]; 0.0320 kg/ha into flood water) was 9.0 and the “herbicide rating (0-9) CYPSE” value ([8]; 0.0620 kg/ha into flood water) was 9.0. For the same molecule, the “herbicide rating (0-9) CYPSE” value ([8]; 0.1250 kg/ha into flood water) was 9.0, the “herbicide rating (0-9) MOOVA” value ([9]; 0.0320 kg/ha into flood water) was 9.0 and the “herbicide rating (0-9) MOOVA” value ([9]; 0.0620 kg/ha into flood water) was 9.0. For the same molecule, the “herbicide rating (0-9) MOOVA” value ([9]; 0.1250 kg/ha into flood water) was 9.0, the “Preemergence herbicidal rating SETVI” value (SETVI (Setaria viridis) [10]; Rate 0.0002 kg/ha) was 0.0 and the “Preemergence herbicidal rating SETVI” value (SETVI (Setaria viridis) [10]; Rate 0.0160 kg/ha) was 9.0. For the same molecule, the “Preemergence herbicidal rating SETVI” value (SETVI (Setaria viridis) [10]; Rate 0.0320 kg/ha) was 9.0, the “Preemergence herbicidal rating ECHCG” value ([11]; Rate 0.0002 kg/ha) was 0.0 and the “Preemergence herbicidal rating ECHCG” value ([11]; Rate 0.0160 kg/ha) was 9.0. For the same molecule, the “Preemergence herbicidal rating ECHCG” value ([11]; Rate 0.0320 kg/ha) was 9.0, the “Preemergence herbicidal rating ABUTH” value ([12]; Rate 0.0002 kg/ha) was 0.0 and the “Preemergence herbicidal rating ABUTH” value ([12]; Rate 0.0160 kg/ha) was 9.0. The “Preemergence herbicidal rating ABUTH” value ([12]; Rate 0.0320 kg/ha) was 9.0, the “herbicide rating (0-9) ECHORC” value ([13]; 0.0320 kg/ha into flood water) was 9.0 and the “herbicide rating (0-9) ECHORC” value ([13]; 0.0620 kg/ha into flood water) was 9.0. The “herbicide rating (0-9) ECHORC” value ([13]; 0.1250 kg/ha into flood water) was 9.0.

From patent US6706663B2, “Herbicidal 3-heterocyclic substituted benzisothiazole and benzisoxazole compounds” (Wyeth, priority 2000, dated 2004)
